Measurements as given in paper PMC12459020, “Chemical Probes that Target a Dissociative LuxR-Type Quorum Sensing Receptor in Gram-Negative Bacteria” (ACS Chemical Biology, 2025).
Entries after “also recorded” stand apart in the source; their conditions may differ. Like-named read-outs stand apart in the source and are kept apart here.

Tests used:
EsaR [1] = target: T1, EsaR (Pantoea stewartii subsp. stewartii, UniProt P54293); assay: cell-based; conditions: for activation at 100 µM / inhibition at 100 µM: 3.5 h; for activation at 100 µM: read-out: EsaR-repressed (pesaR) [%] agonism; for inhibition at 100 µM: read-out: EsaR-repressed (pesaR) antagonism
T1 construct: expressed in transfected cells; host or cells: E. coli JLD271 (K12 ΔsdiA), arabinose-induced pJN105-esaR
T1 sequence (P54293 whole entry): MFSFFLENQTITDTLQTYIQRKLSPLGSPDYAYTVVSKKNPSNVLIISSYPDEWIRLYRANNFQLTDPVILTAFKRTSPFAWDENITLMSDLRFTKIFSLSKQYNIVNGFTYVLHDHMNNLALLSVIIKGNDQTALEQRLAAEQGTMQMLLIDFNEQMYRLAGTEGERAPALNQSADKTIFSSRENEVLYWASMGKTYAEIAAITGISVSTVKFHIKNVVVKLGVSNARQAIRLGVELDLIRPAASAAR
Description: (§1) EsaR transcriptional activation and repression were examined using E. coli and P. stewartii reporters (strains and plasmids listed in Table S1; see Methods section for assay details). […] We constructed reporters in E. coli based on previously reported EsaR reporters (Table S1). Each strain contained an EsaR expression plasmid (pJN105-esaR) and a reporter plasmid with either an EsaR-activated promoter (pesaS) or an EsaR-repressed promoter (pesaR) upstream of luxABCDE or GFP.
(§2) Gibson assembly was used to create all constructs. Plasmid pJN105-esaR was created by amplifying esaR from pAC-esaR and inserting it into pJN105. pesaSlux was created by inserting pesaS, amplified from pPesaR-AC:gfp, into the pCS-pesaRlux backbone. The pesaR promoter was amplified from pCS-pesaRlux and inserted into the pPesaR-AC:gfp backbone to create pesaR:GFP. P. stewartii reporter strains were created by transforming pesaR:GFP or pPesaR-AC:gfp into ESN51 by conjugation using E. coli S17 λpir as the donor strain. See SI for details of E. coli ExpR2 reporter construction.
(§3) Overnight cultures were diluted 1:10 in LB medium with appropriate antibiotics and grown at 37 °C (200 rpm) to an OD600 of 0.22–0.27 before induction with 4 mg mL^–1 arabinose. OD600 was measured by placing 200 μL of culture into a 96-well plate and reading optical density using the BioTek Synergy 2 plate reader. Assays were performed in technical triplicate in clear-bottom, white and clear-bottom, black 96-well microtiter plates (Corning Costar 3903 and 3904) for luminescence and fluorescence reporters, respectively. Compounds were dissolved in DMSO, and 2 μL of this stock, or DMSO as a negative control, was added to each well prior to adding 198 μL of induced culture. Plates were incubated at 37 °C (200 rpm) for 3.5 h. Each well was mixed by pipetting before reading OD600 and either luminescence or fluorescence. Single-point screens were performed with one or two biological replicates, and all dose–response curves were performed in biological triplicate. EC50 values were calculated based on a nonlinear regression of log(concentration) vs response (three parameters) using GraphPad Prism 9 software.

EsaR [2] = target: T1, EsaR; assay: cell-based; conditions: for activation at 100 µM / inhibition at 100 µM: 3.5 h; for activation at 100 µM: read-out: EsaR-activated (pesaS) [%] agonism; for inhibition at 100 µM: read-out: EsaR-activated (pesaS) antagonism; for EsaR agonism, in words: E. coli EsaR reporters, primary screen at 100 μM
Description: as §1, §2, §3

LuxR = conditions: cited from earlier work; for LuxR antagonism: 5 µM compound against 5 µM OHHL, negative values indicate potential activators, ref 6 (SI; Palmer et al., 2011); for LuxR [%] (agonism, activation): compounds at 200 μM, luminescence in V. fischeri ES114 (ΔluxI), ref Palmer et al., 2011 (main ref 44, SI ref 6)
ExpR1 = conditions: cited from earlier work; for ExpR1 antagonism: 5 µM compound against 5 µM OHHL, negative values indicate potential activators, ref 6 (SI; Palmer et al., 2011); for ExpR1 [%] (agonism, activation): compounds at 200 μM, cellulase activity in P. versatile AC5117, ref Palmer et al., 2011 (main ref 44, SI ref 6)
ExpR2 = conditions: cited from earlier work; for ExpR2 antagonism (percent inhibition): 5 µM compound against 5 µM OHHL, negative values indicate potential activators; for ExpR2 antagonism (percent inhibition) / IC50: ref 6 (SI; Palmer et al., 2011); for ExpR2 [%] (agonism, percent activation): compounds at 200 μM, cellulase activity in P. versatile AC5099, ref Palmer et al., 2011 (main ref 44, SI ref 6); for IC50: previously reported phenotypic reporter data

SMILES | activation at 100 µM (EsaR [1]) [%] | inhibition at 100 µM (EsaR [1]) [%] | activation at 100 µM (EsaR [2]) [%] | inhibition at 100 µM (EsaR [2]) [%] | LuxR antagonism (LuxR) [%] | LuxR [%] (agonism, activation) (LuxR) | ExpR1 antagonism (ExpR1) [%] | ExpR1 [%] (agonism, activation) (ExpR1) | ExpR2 antagonism (percent inhibition) (ExpR2) [%] | ExpR2 [%] (agonism, percent activation) (ExpR2) | EsaR agonism, in words (EsaR [2]) | fold less potent than OHHL in EsaR (EC50 ratio) (EsaR [2]; E. coli EsaR-activated reporter EC50 values) [fold] | IC50 (ExpR2) [nM] | EC50 (EsaR [1]) [nM] | EC50 (EsaR [2]) [nM]
O=C(Cc1ccccc1Br)N[C@H]1CCOC1=O [C9] | 0.4 | -14 | -2 | -8 | 47 | 12 | 49 | 9 | 32 | 32 |  |  |  |  | 
O=C(Cc1cccc(I)c1)N[C@H]1CCOC1=O [C11, 3-iodo PHL] | 44 | -56 | 65 | -57 | 78 | 28 | 83 | 32 | 63 | 61 | agonized EsaR | ~300 |  |  | 
O=C(Cc1ccccc1I)N[C@H]1CCOC1=O [C12] | 9 | 4 | -9 | -12 | 63 | 7 | 65 | 11 | 55 | 24 |  |  |  |  | 
O=C(Cc1ccc([N+](=O)[O-])cc1)N[C@H]1CCOC1=O [C13] | 14 | 12 | 14 | -29 | 47 | 24 | 44 | 15 | 32 | 24 |  |  |  |  | 
O=C(Cc1ccccc1[N+](=O)[O-])N[C@H]1CCOC1=O [C15] | -1 | 0 | -10 | -6 | 23 | 4 | 27 | 9 | 3 | 19 |  |  |  |  | 
CCCCCCCCCC(=O)N[C@H]1CCOC1=O [DHL, reference compound] | 4 | -59 | 17 | -11 | 96 | 12 | 91 | 6 | 76 | 44 |  |  | 900 |  | 
Cc1cccc(CC(=O)N[C@H]2CCOC2=O)c1 [E1] | 12 | 2 | 25 | 1 | 78 | 5 | 74 | 6 | 62 | 13 |  |  |  |  | 
COc1cccc(CC(=O)N[C@H]2CCOC2=O)c1 [E2] | 3 | -42 | 4 | 0 | 71 | 7 | 68 | 4 | 59 | 24 |  |  |  |  | 
CSc1cccc(CC(=O)N[C@H]2CCOC2=O)c1 [E7, 3-SCH3 PHL] | 11 | -3 | 23 | -26 | 88 | 4 | 79 | 0 | 71 | 13 | nearly inactive |  |  |  | 
O=C(Cc1cc(C(F)(F)F)cc(C(F)(F)F)c1)N[C@H]1CCOC1=O [E9] | 41 | -17 | 60 | -67 | 0 | 107 | 4 | 9 | 16 | 15 |  |  |  |  | 
O=C(Cc1ccc2ccccc2c1)N[C@H]1CCOC1=O [E12] | 7 | 37 | 0 | -10 | 83 | 2 | 58 | 8 | 5 | 56 |  |  |  |  | 
O=C(Cc1cccc2ccccc12)N[C@H]1CCOC1=O [E13] | 0.5 | -11 | -11 | -2 | 84 | 3 | 69 | 7 | -6 | 95 |  |  |  |  | 
CCCCCC(=O)N[C@H]1CCOC1=O [HHL, hexanoyl HL, reference compound] | 98 | -126 | 100 | -96 | 69 | 2 | 67 | 5 | 12 | 94 | strongly activated |  |  |  | 
O=C(Cc1ccc(Br)cc1)N[C@H]1CCOC1=O [K3] | 18 | -76 | 9 | -24 | 79 | 3 | 71 | 4 | 62 | 25 |  |  | 850 |  | 
CCCCCCCC(=O)CC(=O)N[C@H]1CCOC1=O [ODHL, reference compound] | 37 | -94 | 65 | -69 | 47 | 2 | 42 | 6 | 33 | 48 |  |  |  | ≥ 101000 | ≥ 65000
CCCCCCCC(=O)N[C@H]1CCOC1=O [OHL, octanoyl HL, reference compound] | 91 | -40 | 98 | -95 | 86 | 25 | 78 | 19 | 38 | 79 | strongly activated; also recorded: agonized EsaR |  |  |  | 
CCCCCC(=O)CC(=O)N[C@H]1CCOC1=O [OOHL, 3-(oxo)-octanoyl HL, reference compound] | 91 | -138 | 100 | -89 | 63 | 24 | 65 | 29 | 26 | 78 | strongly activated |  |  |  | 
